Experimental data as given in patent publication US20240207237A1, “METHOD OF SCREENING FOR DRUG COMBINATION FOR COLORECTAL CARCINOMA TREATMENT, DRUG COMBINATION AND USE THEREOF” (National Tsing Hua University, priority 2022, published 2024).

tested on: HCT116 cell lines; experiment: IC50 and cell viability assay of clinical drugs (CCK-8); assay type: cell-based, human; conditions: CCK-8, absorbance 450 nm, triplicate, mean ± SD, Resistance = drug does not affect cell viability
Experimental: All the mediums were purchased from […].
To determine suitable cell seeding number for each cell line, different number (300, 500, 1000, 3000) of cells/wells were seeded in a 96-well plate. A cell viability was determined using a real-time viability assay (RealTime-Glo™ Assay Reagent). Luminescence intensities were measured at different time points (4, 8, 16, 24, 36, 48, 60 and 72 hours) to evaluate a cell growth curve. To establish IC50 values of ten drugs on each cell line, gradient concentrations of each drug were prepared. […] The cell viability was measured with Cell Counting Kit 8 (e.g., CCK-8 purchased from Dojindo molecular technologies, Japan), and cell viability assay was performed after 2 hours of incubation by measuring the absorbances at 450 nm. Relative cell numbers were determined as compared with the control cells. All experiments were performed in triplicate manner, and data were represented as expressed as mean±standard deviation (mean±SD).

Row | Compound | IC50 [µM] | IC50 (μM) ± SD
1 | O=C1[O][Pt]2([NH][C@@H]3CCCC[C@H]3[NH]2)[O]C1=O [Oxaliplatin (O), Oxaliplatin] | 10.3 ± 3.27 | –
2 | Panitumumab [Panitumumab (P)] | – | Resistance
3 | Nc1nc(=O)c2c([nH]1)NCC(CNc1ccc(C(=O)N[C@@H](CCC(=O)O)C(=O)O)cc1)N2C=O (mixture of isomers) [Folinic acid (F), Folinic acid] | – | Resistance
4 | Bevacizumab [Bevacizumab (B)] | – | Resistance

same assay, conditions: Homo sapiens, HCT-116, CCK-8, absorbance 450 nm, triplicate, mean ± SD, Resistance = drug does not affect cell viability

Row | Compound | IC50 [µM]
5 | COc1cc2nccc(Oc3ccc(NC(=O)NC4CC4)c(Cl)c3)c2cc1C(N)=O [Lenvatinib (L), Lenvatinib] | 28.5 ± 0.802
6 | CCc1c2c(nc3ccc(OC(=O)N4CCC(N5CCCCC5)CC4)cc13)-c1cc3c(c(=O)n1C2)COC(=O)[C@]3(O)CC [Irinotecan (I), Irinotecan] | 0.01 ± 0.03
7 | O=c1[nH]cc(F)c(=O)[nH]1 [5-FU (U), 5-Fluorouracil] | 8.56 ± 0.897
8 | CNC(=O)c1cc(Oc2ccc(NC(=O)Nc3ccc(Cl)c(C(F)(F)F)c3)c(F)c2)ccn1 [Regorafenib (R), Regorafenib] | 5.89 ± 0.713
9 | Nc1ccn([C@@H]2O[C@H](CO)[C@@H](O)C2(F)F)c(=O)n1 [Gemcitabine (G), Gemcitabine] | 0.183
